In patent US20060111305A1, “Metabolites of certain [1,4]diazepino[6,7,1-ij]quinoline derivatives and methods of preparation and use thereof” (Wyeth, priority 2004, published 2006):
Where a name gives a salt, the structure may show the parent alone. Read-outs that look alike come from different tables or passages of the source. Marks after values point to notes of the source that are not given here.

Tests used:
[1] = Metabolites of DCDQ identified in rats by LC/MS analysis (Table 18); format: in vivo, Sprague-Dawley rats; conditions: P = plasma, U = urine, B = brain, F = feces
Experimental: An Agilent Model 1100 HPLC system (Agilent Technologies, Wilmington, Del.) including an autosampler and diode array UV detector was used for LC/MS analysis of plasma and urine samples. The UV detector was set to monitor 200 to 400 nm. For selected LC/MS analyses, radiochromatograms were acquired using a β-Ram model 3 radioactivity flow detector (IN/US Systems Inc., Tampa, Fla.) equipped with a solid scintillant flow cell. Fecal samples were also analyzed using a Waters Alliance model 2690 HPLC system. It was equipped with a built-in autosampler and a model 996 diode array UV detector set to 210-350 nm. The HPLC flow was split between a Radiomatic model 150TR flow scintillation analyzer (Perkin Elmer) and the mass spectrometer. Other HPLC conditions were the same as condition B described above.
The mass spectrometer used for metabolite characterization for plasma and urine was a Micromass Q-TOF-2 quadrupole time-of-flight hybrid mass spectrometer (Waters). The mass spectrometer was equipped with an electrospray ionization (ESI) interface and operated in the positive ionization mode. Collision energy settings of 5 and 30 eV were used for full MS and MS/MS scans, respectively. Settings for the mass spectrometer are listed below.
A Micromass Quattro Micro mass spectrometer (Waters) was also used to analyze the fecal samples. It was equipped with an electrospray ionization (ESI) interface and operated in the positive ionization mode. Settings for the mass spectrometer are listed below.
LC/MS/MS in the selected reaction-monitoring (SRM) mode (LC/SRM) was conducted with the triple quadruple mass spectrometer to monitor DCDQ and its metabolites in fecal samples. The transitions monitored are listed below.

[2] = Rat plasma metabolite profiles after single oral 5 mg/kg [14C]DCDQ; format: in vivo, Sprague-Dawley rats; conditions: for concentration at 2 h / concentration at 8 h / concentration at 4 h: Sprague-Dawley, rat, plasma, mean n = 3, read-out: Estimated plasma concentration in rats; for Chromatographic distribution of radioactivity in rat plasma / Estimated plasma concentration in rats: mean n = 3
Experimental: Plasma samples were analyzed for metabolite profiles by HPLC. Aliquots of 1.5 mL plasma were mixed with 3.0 mL methanol, placed on ice for about 10 minutes, and then centrifuged. The supernatant was transferred to a clean tube. The protein pellets were extracted once with 3.0 mL methanol. The supernatants from precipitation and extraction of each sample were pooled, mixed, and evaporated at 22° C. under nitrogen in a Zymark TurboVap LV (Caliper Life Sciences, Hopkinton, Mass.) to about 0.3 mL. The concentrated extract was centrifuged, the supernatant volume measured and extraction efficiency was determined by analyzing duplicate 10 μL aliquots for radioactivity. An aliquot of the supernatant (50-200 μL) was analyzed by HPLC with radioactivity flow detection. Plasma extracts were also analyzed by LC/MS.
(§1) A Waters model 2690 HPLC system (Waters Corp., Milford, Mass.) with a built-in autosampler was used for analysis. Separations were accomplished on a Phenomenex Luna C18(2) column (150×2.0 mm, 5 μm) (Phenomenex, Torrance, Calif.). The sample chamber of the autosampler was maintained at 4° C., while the column was at ambient temperature of about 20° C. A variable wavelength UV detector set to monitor 250 nm and a Flo-One β Model A525 radioactivity detector described above were used for data acquisition. The HPLC mobile phase consisted of 10 mM ammonium acetate, pH 4.5 (A) and methanol (B), and was delivered at 0.2 mL/min. Chromatographic condition A was used for dose analysis, while condition B was used for analysis of urine and plasma, brain and fecal extracts.

[3] = Dog fecal excretion and metabolite profiles after oral capsule of [14C]DCDQ; format: in vivo, beagle dogs
Experimental: Blood samples were collected from the jugular vein at 2, 4, 8, 24 and 48 hour after dose administration into tubes containing potassium EDTA as the anticoagulant and then placed on ice. Aliquots of 50 μL were removed for combustion and determination of radioactivity content. Plasma was immediately obtained from the remaining blood by centrifugation at 4° C. Urine samples were collected into tubes on dry ice at intervals of 0-8, 8-24 and 24-48 hour post-dose. Fecal samples were collected at intervals of 0-8, 8-24 and 24-48 hour post-dose at room temperature, and were homogenized. The biological specimens were stored at approximately −70° C. until analysis.
Feces were weighed and homogenized in water at a volume-to-weight ratio of about 5:1. Aliquots of blood (200 μL) and fecal homogenates (0.25-0.53 gram) were placed on Combusto-cones with Combusto-pads and combusted. A model 307 Tri-Carb sample oxidizer, equipped with an Oximate-80 robotic automatic sampler (Perkin Elmer), was used for combustion of blood and fecal samples. The liberated ^14CO2 was trapped with Carbo-Sorb E carbon dioxide absorber, mixed with PermaFluor® E+ liquid scintillation cocktail, and counted on a Tri-Carb Model 3100 TR/LL liquid scintillation counter (Perkin Elmer). The efficiency of combustion was 98.9%.
(§2) Fecal homogenates were analyzed for metabolite profiles. Aliquots of 1 gram of fecal homogenate were mixed with 2 mL methanol, placed on ice for about 10 minutes and centrifuged. The supernatant was transferred to a clean tube. The residue was extracted three times with 2 mL of a water:methanol (3:7) mixture. The supernatants from each sample were combined, evaporated to about 1 mL, and centrifuged. Extraction efficiency was determined by analyzing aliquots of 10 μL of the supernatant for radioactivity. An aliquot (50-200 μL) of the supernatant was analyzed by HPLC with radioactivity flow detection for metabolite profiles. Samples were also analyzed by LC/MS to characterize the radioactive peaks.
as §1, with “detector” for “detector described above”, “acetonitrile” for “methanol”

[4] = Rat urinary excretion and metabolite profiles after single oral 5 mg/kg [14C]DCDQ; format: in vivo, Sprague-Dawley rats; conditions: oral 5 mg/kg, mean n = 3
Experimental: (§3) At sacrifice, blood samples were collected by cardiac puncture into tubes containing EDTA as the anticoagulant and placing them on ice. Aliquots of 50 μL were removed for combustion and determination of radioactivity content. Plasma was immediately obtained from the remaining blood by centrifugation at 4° C. Brains were excised after perfusion with 50 mL of chilled sterile saline. Urine samples were collected on dry ice at intervals of 0-8 and 8-24 hour post-dosing. Feces were collected at intervals of 0-8 and 8-24 hr post-dosing at room temperature and were homogenized as described previously. The biological specimens and aliquots of the dosing solution at pre- and post-dose were stored at approximately −70° C. until analyzed.
Plasma (20 μL) and urine (50 μL) aliquots were analyzed for radioactivity concentrations. Radioactivity determinations of dose, plasma and urine were made with a Tri-Carb Model 3100 TR/LL liquid scintillation counter (LSC) (Perkin Elmer) using 10 mL of Ultima Gold as the scintillation fluid.
Urine was analyzed for radioactivity concentration as and analyzed for metabolite profiles by direct injection onto the HPLC column. LC/MS analyses for metabolite identification were also carried out with urine samples.
as §1

[5] = Rat fecal excretion and metabolite profiles after single oral 5 mg/kg [14C]DCDQ; format: in vivo, Sprague-Dawley rats; conditions: male rats, 8-24 hour fecal extracts
Experimental: as §3
Brain and fecal samples were weighed and homogenized in water at volume-to-weight ratios of about 1:1 and 5:1, respectively. Blood aliquots (50 μL), brain homogenates (0.1 gram) and fecal homogenates (0.2 gram) were placed on Combusto-cones with Combusto-pads and combusted. A model 307 Tri-Carb Sample Oxidizer, equipped with an Oximate-80 Robotic Automatic Sampler (Perkin Elmer), was used for combustion. The liberated ^14CO2 was trapped with Carbo-Sorb E carbon dioxide absorber, mixed with PermaFluor® E+ liquid scintillation cocktail, and counted in a Tri-Carb Model 3100 TR/LL liquid scintillation counter (Perkin Elmer). The oxidation efficiency of the oxidizer was 98.2%.
as §2, with “of fecal homogenates were mixed” for “of fecal homogenate were mixed”, “The supernatants of each sample” for “The supernatants from each sample”, “detection for profiling. Samples were” for “detection for metabolite profiles. Samples were”
as §1, with “Chromatographic condition A was used for dose analysis, while condition B was used for analysis of urine and plasma, brain and fecal extracts.” left out

Row | SMILES | Matrix [1] | concentration at 2 h ([2]; female, 2 hr) [ng/mL] | concentration at 8 h ([2]; female, 8 hr) [ng/mL] | Chromatographic distribution of radioactivity in rat plasma ([2]; female, 2 hr) | Chromatographic distribution of radioactivity in rat plasma ([2]; female, 8 hr) | Chromatographic distribution of radioactivity in rat plasma ([2]; male, 2 hr) | Estimated plasma concentration in rats ([2]; male, 2 hr) | Chromatographic distribution of radioactivity in rat plasma ([2]; male, 4 hr) | Estimated plasma concentration in rats ([2]; male, 4 hr) | Chromatographic distribution of radioactivity in rat plasma ([2]; male, 8 hr) | Estimated plasma concentration in rats ([2]; male, 8 hr) | concentration at 2 h ([2]; male, 2 hr) [ng/mL] | concentration at 4 h ([2]; male, 4 hr) [ng/mL] | concentration at 8 h ([2]; male, 8 hr) [ng/mL] | further results
1 | O=S(=O)(O)N1CCN2CC3=CCC=C3c3cccc(c32)C1 [Metabolite M14, di-dehydro DCDQ sulfamate] | P, U | 25.1 | 16.5 | 4.0^d % | 4.9^d % | BQL | BQL | BQL | BQL) | BQL | BQL |  |  |  | 
2 | O=S(=O)(O)N1CCN2C[C@@H]3CCC[C@@H]3c3cccc(c32)C1 [Metabolite M12, DCDQ sulfamate] | P, U | 33.8 | 11.8 | 5.2^e % | 3.3% | BQL^c | BQL^c | BQL | BQL | BQL | BQL |  |  |  | 
3 | O=S(=O)(O)OC1CC[C@@H]2c3cccc4c3N(CCNC4)CC12 (some centres unmarked) [Metabolite M13, 17-hydroxy DCDQ sulfate] |  | 16.6 | 5.62 | 2.6% | 1.6% | 1.9% |  | 2.2% |  | 1.4% |  | 11.6 | 14.2 | 6.33 | 
4 | O=C1NCCN2C[C@@H]3CCC[C@@H]3c3cccc1c32 [Metabolite M18, keto DCDQ] |  |  |  |  |  |  |  |  |  |  |  |  |  |  | % of total radioactivity in fecal extracts [3]: up to 16.4%; metabolite detected in feces [3]: detected
5 | OC1CNCc2cccc3c2N1C[C@@H]1CCC[C@H]31 (some centres unmarked) [Metabolite M10, hydroxy DCDQ] | U, B, F | 35.2 | 18.9 | 5.2% | 5.6% | 3.6% |  | 1.5% |  | 3.0% |  | 23.7 | 9.81 | 13.2 | Chromatographic distribution of radioactivity in male rat urine ([4]; 0-8 hr): 3.32%; Percentage of dose for urinary metabolites in rats ([4]; 0-8 hr): 1.08%; Percentage of dose for urinary metabolites in rats ([4]; 0-24 hr): 1.99%; Chromatographic distribution of radioactivity in male rat urine ([4]; 8-24 hr): 2.70%; Percentage of dose for urinary metabolites in rats ([4]; 8-24 hr): 0.91%
6 | CC(=O)N1Cc2cccc3c2N(C[C@@H]2CCC[C@H]32)C(O)C1 (some centres unmarked) [Metabolite M11, acetylated hydroxy DCDQ] | P, B, F | 41 | 16.6 | 6.1% | 4.9% | 6.0% |  | 5.2% |  | 3.6% |  | 37.2 | 34.5 | 16.3 | relative abundance in fecal extracts [5]: major metabolites
